Where two headings read alike, the source gives them in different places.
Assays:
[1] = tested on: pilocarpine-induced salivation; experiment: Rat antisialagogue assay; assay type: in vivo; details: evaluated at 1, 6, and 24 hours post-dose
Protocol: Rats (Sprague-Dawley, male, 250-350 g) are dosed, anesthetized and cannulated as described for Assay 3. At predetermined time points and after surgery, animals are placed on their dorsal side at a 20° incline with their head in a downward slope. A pre-weighed gauze pad is inserted in the animal's mouth and the muscarinic agonist pilocarpine (PILO) (3 mg/kg, IV) is administered. Saliva produced during 10 minutes post-PILO is measured gravimetrically by determining the weight of the gauze pad before and after PILO. Antisialagogue effects are expressed as % inhibition of salivation relative to control animals.
The rat antisialagogue assay was developed to assess systemic exposure and calculate the lung selectivity index (LSI) of test compounds. The standard, tiotropium, was evaluated in this model at 1, 6, and 24 hours post-dose. […] This finding is consistent with the peak effects observed in the Einthoven assay.
This model is a modified version of the procedure described in Rechter, “Estimation of anticholinergic drug effects in mice by antagonism against pilocarpine-induced salivation” Ata Pharmacol Toxicol 24:243-254 (1996). The mean weight of saliva in vehicle-treated animals, at each pre-treatment time, is calculated and used to compute % inhibition of salivation, at the corresponding pre-treatment time, at each dose.

MCh response = details: rat
[2] = target: T1, hM3 muscarinic receptor subtype (Homo sapiens, UniProt P20309); experiment: biochemical; assay type: binding
T1 construct: expressed in transfected cells; membranes prepared

hM2 receptor = target: T2, hM2 receptor (Homo sapiens, UniProt P08172); experiment: Blockade of agonist-mediated inhibition of cAMP accumulation; assay type: cell-based; details: CHO-K1 cells expressing the hM2 receptor; read-out: Ki for blockade of oxotremorine-inhibition of forskolin-mediated cAMP accumulation
T2 construct: expressed in transfected cells; host or cells: CHO-K1 cells
T2 sequence (P08172 1-466): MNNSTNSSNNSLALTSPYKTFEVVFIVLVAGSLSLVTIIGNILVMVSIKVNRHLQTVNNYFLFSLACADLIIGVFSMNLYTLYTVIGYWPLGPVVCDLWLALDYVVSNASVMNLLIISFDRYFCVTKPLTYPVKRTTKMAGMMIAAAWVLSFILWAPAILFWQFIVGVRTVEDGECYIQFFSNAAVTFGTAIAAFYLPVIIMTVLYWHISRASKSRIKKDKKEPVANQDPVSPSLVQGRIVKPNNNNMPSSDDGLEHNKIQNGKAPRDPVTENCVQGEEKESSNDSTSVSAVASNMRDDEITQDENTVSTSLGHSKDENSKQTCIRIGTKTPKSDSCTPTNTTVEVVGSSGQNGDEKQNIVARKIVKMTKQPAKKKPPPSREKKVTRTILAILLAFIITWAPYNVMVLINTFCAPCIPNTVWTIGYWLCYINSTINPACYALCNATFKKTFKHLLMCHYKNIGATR

T1 sequence (P20309 whole entry): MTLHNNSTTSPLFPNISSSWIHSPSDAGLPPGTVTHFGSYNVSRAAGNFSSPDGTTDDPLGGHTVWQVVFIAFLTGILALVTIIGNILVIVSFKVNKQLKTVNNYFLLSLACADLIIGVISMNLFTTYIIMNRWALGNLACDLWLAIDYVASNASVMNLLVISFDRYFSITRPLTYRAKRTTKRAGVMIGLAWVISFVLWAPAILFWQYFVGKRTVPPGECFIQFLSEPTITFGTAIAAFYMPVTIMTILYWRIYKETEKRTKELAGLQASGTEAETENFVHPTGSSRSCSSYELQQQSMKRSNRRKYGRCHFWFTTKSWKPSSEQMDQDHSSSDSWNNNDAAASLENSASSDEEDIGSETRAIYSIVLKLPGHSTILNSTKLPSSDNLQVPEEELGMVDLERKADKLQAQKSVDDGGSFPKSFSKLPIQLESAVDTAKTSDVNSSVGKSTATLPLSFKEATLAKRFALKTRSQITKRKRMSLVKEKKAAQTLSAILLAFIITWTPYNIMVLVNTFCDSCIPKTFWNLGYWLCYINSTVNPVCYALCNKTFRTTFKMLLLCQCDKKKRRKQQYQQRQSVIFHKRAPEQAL

SMILES: C[N+]1(C)[C@@H]2C[C@@H](OC(=O)C(O)(c3cccs3)c3cccs3)C[C@H]1[C@@H]1O[C@@H]12 [tiotropium]
- time post dose at which most potent at inhibiting pilocarpine-induced salivation [1]: 6 h
- ID50 (bronchoprotective potency) (MCh response; in vivo): 6 µg/mL
- fold more potent at 6 hour and 24 hour compared to 1.5 hour potency (MCh response; in vivo): about 2 fold
- time of peak bronchoprotection post-dose (MCh response; in vivo): 6 h

SMILES: C[N+](C)(CCc1ccccc1)C1CCN(C(=O)[C@](O)(c2ccccc2)C2CCCC2)CC1 [Example 1, [1-((R)-2-cyclopentyl-2-hydroxy-2-phenylacetyl)piperidin-4-yl]dimethylphenethylammonium]
- Ki [2]: < 1 nM

SMILES: C[N+](C)(CCc1cccc(O)c1)C1CCN(C(=O)[C@](O)(c2ccccc2)C2CCCC2)CC1 [Example 2, [1-((R)-2-cyclopentyl-2-hydroxy-2-phenylacetyl)piperidin-4-yl][2-(3-hydroxyphenyl)ethyl]dimethylammonium]
- Ki [2]: < 1 nM
- Ki (hM2 receptor): < 1 nM

SMILES: CC(C)[N+]1(C)[C@@H]2CC[C@H]1C[C@@H](OC(=O)C(CO)c1ccccc1)C2 (stereo partly shown) [ipratropium]
- ID50 (bronchoprotective potency) (MCh response; in vivo): 4.4 µg/mL
- fold less potent 6-hours post-dose compared to 1.5 hour potency (MCh response; in vivo): about 3 fold

SMILES: C[N+]1(C)CCC(OC(=O)C(O)(c2ccccc2)C2CCCC2)C1 (stereo not shown) [glycopyrrolate]
- ID50 (bronchoprotective potency) (MCh response; inhalation, 1.5 hours post-dose): 15 µg/mL
